Experimental data as given in ChEMBL document CHEMBL1201862, “PubChem BioAssay data set” (2004).
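Cells were grown in 96-well plates and exposed to each compound for 48 hours at five concentrations; endpoints were interpolated linearly between bracketing concentrations, or set to the highest concentration if not reached. GI50 marks 50% less growth.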 The source made the active and inactive calls. Rule as the data show it: active = GI50 up to about 1.1 µM and inactive = higher.

Key:
Assay in all cases: inhibition of tumour cell growth, NCI panel, 48 h
MDA-MB-435 = test system: MDA-MB-435
SNB-75 = test system: SNB-75
BT-549 = test system: BT-549
CCRF-CEM = test system: CCRF-CEM
KM12 = test system: KM12
HCT-15 = test system: HCT-15
Malme-3M = test system: Malme-3M
SF-268 = test system: SF-268
DU-145 = test system: DU-145
MCF7 = test system: MCF7
NCI-H522 = test system: NCI-H522
OVCAR-4 = test system: OVCAR-4
SN12C = test system: SN12C
Hs-578T = test system: Hs-578T
786-0 = test system: 786-0
UO-31 = test system: UO-31
HOP-62 = test system: HOP-62
SF-295 = test system: SF-295
IGROV-1 = test system: IGROV-1
HOP-92 = test system: HOP-92
MDA-N = test system: MDA-N
SK-MEL-2 = test system: SK-MEL-2
HCT-116 = test system: HCT-116
MOLT-4 = test system: MOLT-4
SK-MEL-5 = test system: SK-MEL-5
NCI-H226 = test system: NCI-H226
COLO 205 = test system: COLO 205
UACC-257 = test system: UACC-257
SK-OV-3 = test system: SK-OV-3
NCI-H460 = test system: NCI-H460
ACHN = test system: ACHN
SK-MEL-28 = test system: SK-MEL-28
HCC 2998 = test system: HCC 2998
T47D = test system: T47D
A549 = test system: A549
OVCAR-3 = test system: OVCAR-3
SW-620 = test system: SW-620
TK-10 = test system: TK-10
A498 = test system: A498
NCI/ADR-RES = test system: NCI/ADR-RES
UACC-62 = test system: UACC-62
RXF 393 = test system: RXF 393
HT-29 = test system: HT-29
HL-60 = test system: HL-60
CAKI-1 = test system: CAKI-1
OVCAR-8 = test system: OVCAR-8
K562 = test system: K562
PC-3 = test system: PC-3
SF-539 = test system: SF-539
MDA-MB-231 = test system: MDA-MB-231
OVCAR-5 = test system: OVCAR-5
EKVX = test system: EKVX
SR = test system: SR
LOX IMVI = test system: LOX IMVI
M14 = test system: M14
SNB-19 = test system: SNB-19

c1ccc(CNC2CC(NCc3ccccn3)CC(NCc3ccccn3)C2)nc1 (stereo not drawn)
GI50 (MDA-MB-435): 3.28 µM (inactive) | GI50 (SNB-75): 2.97 µM (inactive) | GI50 (BT-549): 6.79 µM (inactive) | GI50 (CCRF-CEM): 2.92 µM (inactive) | GI50 (KM12): 1.73 µM (inactive) | GI50 (HCT-15): 4.21 µM | GI50 (Malme-3M): 3.56 µM (inactive) | GI50 (SF-268): 4.53 µM (inactive) | GI50 (DU-145): 3.14 µM (inactive) | GI50 (MCF7): 2.29 µM (inactive) | GI50 (NCI-H522): 2.62 µM (inactive) | GI50 (OVCAR-4): 2.88 µM (inactive) | GI50 (SN12C): 5.97 µM (inactive) | GI50 (Hs-578T): 8.28 µM (inactive) | GI50 (786-0): 3.02 µM (inactive) | GI50 (UO-31): 16.7 µM (inactive) | GI50 (HOP-62): 5.47 µM (inactive) | GI50 (SF-295): 4.18 µM (inactive) | GI50 (IGROV-1): 3.21 µM (inactive) | GI50 (HOP-92): 3.24 µM (inactive) | GI50 (MDA-N): 3.42 µM (inactive) | GI50 (SK-MEL-2): 2.58 µM (inactive) | GI50 (HCT-116): 2.23 µM (inactive) | GI50 (MOLT-4): 3.96 µM (inactive) | GI50 (SK-MEL-5): 2.25 µM (inactive) | GI50 (NCI-H226): 2.32 µM (inactive) | GI50 (COLO 205): 1.81 µM (inactive) | GI50 (UACC-257): 6.65 µM (inactive) | GI50 (SK-OV-3): 2.82 µM (inactive) | GI50 (NCI-H460): 2.6 µM (inactive) | GI50 (ACHN): 12.5 µM (inactive) | GI50 (SK-MEL-28): 4.75 µM (inactive) | GI50 (HCC 2998): 1.98 µM (inactive) | GI50 (T47D): 4.61 µM (inactive) | GI50 (A549): 2.61 µM (inactive) | GI50 (OVCAR-3): 3.33 µM (inactive) | GI50 (SW-620): 4.11 µM (inactive) | GI50 (TK-10): 4.58 µM (inactive) | GI50 (A498): 1.82 µM (inactive)

CCC(CCCN)Nc1cc(OC)cc2cccnc12 (stereo not drawn)
GI50 (MDA-MB-435): > 100 µM (inactive) | GI50 (NCI/ADR-RES): > 100 µM (inactive) | GI50 (SNB-75): 31.1 µM (inactive) | GI50 (UACC-62): 46.3 µM (inactive) | GI50 (RXF 393): 41.3 µM (inactive) | GI50 (BT-549): > 100 µM (inactive) | GI50 (CCRF-CEM): 48.9 µM (inactive) | GI50 (KM12): > 100 µM (inactive) | GI50 (HCT-15): > 100 µM | GI50 (Malme-3M): 38.7 µM (inactive) | GI50 (SF-268): > 100 µM (inactive) | GI50 (DU-145): > 100 µM (inactive) | GI50 (HT-29): 32.4 µM (inactive) | GI50 (MCF7): 29.4 µM (inactive) | GI50 (OVCAR-4): 90.2 µM (inactive) | GI50 (SN12C): > 100 µM (inactive) | GI50 (Hs-578T): > 100 µM (inactive) | GI50 (786-0): > 100 µM (inactive) | GI50 (UO-31): 70 µM (inactive) | GI50 (HL-60): 21.9 µM (inactive) | GI50 (HOP-62): > 100 µM (inactive) | GI50 (CAKI-1): > 100 µM (inactive) | GI50 (SF-295): > 100 µM (inactive) | GI50 (IGROV-1): 87.3 µM (inactive) | GI50 (OVCAR-8): > 100 µM (inactive) | GI50 (HOP-92): > 100 µM (inactive) | GI50 (MDA-N): > 100 µM (inactive) | GI50 (SK-MEL-2): > 100 µM (inactive) | GI50 (HCT-116): > 100 µM (inactive) | GI50 (MOLT-4): > 10 µM (inactive) | GI50 (SK-MEL-5): 85.1 µM (inactive) | GI50 (NCI-H226): > 100 µM (inactive) | GI50 (K562): 57 µM (inactive) | GI50 (PC-3): > 100 µM (inactive) | GI50 (SF-539): > 100 µM (inactive) | GI50 (COLO 205): 33.6 µM (inactive) | GI50 (MDA-MB-231): 53.5 µM (inactive) | GI50 (UACC-257): 15.5 µM (inactive) | GI50 (SK-OV-3): > 100 µM (inactive) | GI50 (NCI-H460): > 100 µM (inactive) | GI50 (OVCAR-5): > 100 µM (inactive) | GI50 (EKVX): > 100 µM (inactive) | GI50 (SR): 79.6 µM (inactive) | GI50 (ACHN): > 100 µM (inactive) | GI50 (SK-MEL-28): > 100 µM (inactive) | GI50 (HCC 2998): 22.7 µM (inactive) | GI50 (A549): > 100 µM (inactive) | GI50 (OVCAR-3): 40.4 µM (inactive) | GI50 (SW-620): > 100 µM (inactive) | GI50 (LOX IMVI): > 100 µM (inactive) | GI50 (TK-10): > 100 µM (inactive) | GI50 (M14): 41.3 µM (inactive) | GI50 (A498): > 100 µM (inactive) | GI50 (SNB-19): > 100 µM (inactive)
